Assay results: patent US20250320523A1, “PHAGOCYTOSIS ASSAY COMBINING A SYNTHETIC CELL DEATH SWITCH AND A PHAGOCYTOSIS REPORTER SYSTEM” (Hoffmann-La Roche Inc., priority 2022, published 2025)

Tests used:
[1] = system: HEK293 cells transfected with iCaspase9; assay: Apoptosis induction in iCaspase9-transfected HEK293 cells, AnnexinV/viability dye flow cytometry; assay type: cell-based
Method: HEK293 cells were transfected with 2 μg of iCaspase9 construct by nucleofection (Amaxa 4D nucleofector by Lonza, program CM-130) and plated in a 24-well plate. The following day, 100 nM AP20187 was added to the cells, and analyzed 1 h, 2 h or 3 h later. For the control, the cells were incubated with […] Staurosporine for 3 h. For the analysis, the cells were harvested and labeled with AnnexinV-BV421 and viability dye APCeF780 and analyzed by flow cytometry. Apoptotic cells were qualified as AnnexinV-positive and viability dye-negative.

[2] = system: H4-iCaspase-SEP-mCherry cells in neurovascular unit model; assay: Phagocytosis assay in 3D neurovascular unit model in microfluidic chip; assay type: cell-based, human; conditions: 10 nM AP20187, 3D matrix of microfluidic chip, after 7 days culture
Method: H4 cells were transduced with a lentiviral vector containing iCaspase-SEP-mCherry, single-cell sorted for SEP- and mCherry double positive cells and expanded in 1 μg/ml Puromycin-containing media to select for stably transduced cells. H4-iCaspase-SEP-mCherry and HMC3 microglia were co-seeded with primary human brain endothelial cells, pericytes and astrocytes (Sciencell) at the ratio 1:1:4:0.5:1 and left to self-assemble to neurovascular units inside a fibrin gel matrix in a microfluidic chip (AIM Biotech). The cells were seeded into the microfluidic chips as described in Campisi, M et al.3D Self-Organized Human Blood-Brain Barrier in a Microfluidic Chip. Methods Mol Biol. 2021; 2258:205-219, and the vascular networks were grown over 7 days in EGM2 medium (Lonza) with astrocyte growth supplement (Sciencell). Apoptosis was induced at t0 by adding 10 nM AP20187 to the media, the chips were then fixed in 4% PFA after 30 minutes or 2 h, counterstained with DAPI and imaged on an inverted fluorescence microscope.

[3] = system: H4-iCaspase-SEP-mCherry cells in blood-brain barrier spheroids; assay: Phagocytosis assay in 3D BBB spheroids (H4-iCaspase-SEP-mCherry and HMC3 microglia); assay type: cell-based, human; conditions: 100 nM AP20187, day 2, imaged 8 hours
Method: H4 cells were transduced with a lentiviral vector containing iCaspase-SEP-mCherry, single-cell sorted for SEP- and mCherry double-positive cells and expanded in 1 μg/ml Puromycin-containing media to select for stably transduced cells. H4-iCaspase-SEP-mCherry and HMC3 microglia were co-seeded with primary human brain endothelial cells, pericytes and astrocytes (Sciencell) to form blood-brain barrier (BBB) spheroids as described by Simonneau, C et al. Investigating receptor-mediated antibody transcytosis using blood-brain barrier organoid arrays. Fluids Barriers CNS. 2021; 18 (1): 43. Briefly, the cells were combined at a 1:1:1:1:1 ratio and seeded into a glass-bottom GRI3D microwell plate (SUN Biosciences). After 2 days of culture in EGM2 medium (Lonza) with astrocyte growth supplement (Sciencell), a timelapse experiment was performed as described above (for FIG. 4): Apoptosis was induced at t0 by adding 100 nM AP20187 to the media, and time-lapse imaging was immediately started on an inverted fluorescence microscope (Leica) using autofocus, 10× objective, 1 image every 10 minutes for 8 hours or more.

[4] = system: efferocytosis by THP-1 macrophages; assay: Efferocytosis of Jurkat-iCaspase-SEP-mCherry cells by THP-1 macrophages, flow cytometry; assay type: cell-based; conditions: Jurkat cells pre-treated, then 10 nM AP20187, incubated with THP-1 macrophages
Method: Jurkat cells were transduced with a lentiviral vector containing iCaspase-SEP-mCherry, FACS sorted for SEP- and mCherry-expression and expanded in 1 ug/ml Puromycin-containing media to select for stably transduced cells. For pre-treatments, the Jurkat cells were incubated with GAS6, an efferocytosis enhancer, or Cytochalasin D, an efferocytosis inhibitor, then exposed to 10 nM AP20187 and incubated with THP-1 macrophages. As a control, Jurkat cells were treated with Staurosporin and labeled with pHrodo (red pH-sensitive fluorophore). Efferocytosis was quantified using flow cytometry, by gating for mCherry-positive and SEP-negative cells (apoptotic cells taken up by THP1), and for pHrodo-high cells in the control samples.

[5] = system: phagocytosis by iPSC-derived microglia; assay: 2D phagocytosis of apoptotic H4-iCaspase-SEP-mCherry cells by iPSC-derived microglia (Incucyte imaging); assay type: cell-based, human; conditions: 1 uM Cytochalasin D added 30 min before imaging; apoptosis induced with 10 nM AP20187
Method: H4 cells were transduced with a lentiviral vector containing iCaspase-SEP-mCherry, single-cell sorted for SEP and mCherry double-positive cells and expanded in 1 μg/ml Puromycin-containing media to select for stably transduced cells. HMC3 or iPSC-derived microglia (Reich, M et al. Alzheimer's Risk Gene TREM2 Determines Functional Properties of New Type of Human iPSC-Derived Microglia. 2021; 11:617860) were seeded in a 96-well imaging plate […]. To visualize microglial morphology during the phagocytosis assay, cells were stained with a far-red viability dye (eBioscience). H4-iCaspase-SEP-mCherry cells were added the next day and left to attach for 3 h. […] Apoptosis was induced at to by adding 10 nM AP20187 to the media, and time-lapse imaging was immediately started on an inverted fluorescence microscope (Leica) or incucyte (Sartorius), 10× objective, 1 image every 10 minutes for 8 hours or more.
The number of phagocytosed cells per area was determined using the incucyte software for automated image quantification, by 1) segmenting individual cells, 2) identifying all H4-iCaspase-SEP-mCherry cells positive for mCherry (red fluorescence) and 3) from those cells, identifying the SEP (green fluorescence) negative cells as phagocytosed cells. […]

Question: How did the “apoptotic cells (AnnexinV-positive and viability dye-negative)” value ([1]; Staurosporine, after 3 h) turn out when CN[C@@H]1C[C@H]2O[C@@](C)([C@@H]1OC)n1c3ccccc3c3c4c(c5c6ccccc6n2c5c31)C(=O)NC4 [Staurosporine] was run?
Answer: 36%

Question: How did the “time to efficient induction of apoptosis in transduced cells” value [2] turn out when CC[C@H](C(=O)N1CCCC[C@H]1C(=O)O[C@H](CCc1ccc(OC)c(OC)c1)c1cccc(OCC(=O)NCC(CNC(=O)COc2cccc([C@@H](CCc3ccc(OC)c(OC)c3)OC(=O)[C@@H]3CCCCN3C(=O)[C@@H](CC)c3cc(OC)c(OC)c(OC)c3)c2)CN(C)C)c1)c1cc(OC)c(OC)c(OC)c1 [AP20187] was run?
Answer: ≤ 30 min

Question: What about the “SEP signal of spheroids (loss indicates phagocytosis)” value [3] of the same molecule?
Answer: gradually lost SEP signal

Question: What about the “apoptotic cells (AnnexinV-positive and viability dye-negative)” value ([1]; 100 nM AP20187, after 1 h, iCaspase9 HEK293 cells) of the same molecule?
Answer: 88%

Question: With C=C1[C@@H](C)[C@H]2[C@H](Cc3ccccc3)NC(=O)[C@]23[C@H](OC(C)=O)/C=C/[C@@](C)(O)C(=O)[C@@H](C)C/C=C/[C@H]3[C@@H]1O [Cytochalasin D] as the molecule, how does the “uptake of apoptotic cells by macrophages” value [4] read?
Answer: lowest uptake

Question: And the “onset and total amount of phagocytosed apoptotic cells” value [5]?
Answer: reduces both the onset and total amount

B1: GAS6: an efferocytosis enhancer (protein, UniProt Q14393 31-678, looked up)
Growth arrest-specific …: ALLPAREATQFLRPRQRRAFQVFEEAKQGHLERECVEELCSREEAREVFENDPETDYFYPRYLDCINKYGSPYTKNSGFATCVQNLPDQCTPNPCDRKGTQACQDLMGNFFCLCKAGWGGRLCDKDVNECSQENGGCLQICHNKPGSFHCSCHSGFELSSDGRTCQDIDECADSEACGEARCKNLPGSYSCLCDEGFAYSSQEKACRDVDECLQGRCEQVCVNSPGSYTCHCDGRGGLKLSQDMDTCEDILPCVPFSVAKSVKSLYLGRMFSGTPVIRLRFKRLQPTRLVAEFDFRTFDPEGILLFAGGHQDSTWIVLALRAGRLELQLRYNGVGRVTSSGPVINHGMWQTISVEELARNLVIKVNRDAVMKIAVAGDLFQPERGLYHLNLTVGGIPFHEKDLVQPINPRLDGCMRSWNWLNGEDTTIQETVKVNTRMQCFSVTERGSFYPGSGFAFYSLDYMRTPLDVGTESTWEVEVVAHIRPAADTGVLFALWAPDLRAVPLSVALVDYHSTKKLKKQLVVLAVEHTALALMEIKVCDGQEHVVTVSLRDGEATLEVDGTRGQSEVSAAQLQERLAVLERHLRSPVLTFAGGLPDVPVTSAPVTAFYRGCMTLEVNRRLLDLDEAAYKHSDITAHSCPPVEPAAA
Question: With B1 as the molecule, how does the “uptake of apoptotic cells by macrophages” value [4] read?
Answer: highest uptake
